Measurements taken from article PMC4263767, “IL-28B is a Key Regulator of B- and T-Cell Vaccine Responses against Influenza” (PLoS Pathogens, 2014).
“Also recorded” adds a separate entry of the source. Read-outs that look alike come from different tables or passages of the source.

Tests used:
[1] = system: PBMCs from healthy volunteers; assay: IL-28A, IL-28B and IL-29 mRNA expression in H1N1-stimulated PBMCs; assay type: cell-based, human; details: MMF various concentrations 2 h before 6 h H1N1; n = 25
Experimental: (A) PBMCs from healthy volunteers were stimulated for six-hours with H1N1. mRNA-expression of IL-28A, IL-28B and IL-29 were normalized to non-stimulated controls and HPRT expression. Major (rs8099917 TT, n = 28) compared to minor (rs8099917 non-TT, n = 21) allele genotype. MWU-test determined statistically significant differences between groups. Bars show median values with interquartile range. (B) PBMCs from healthy volunteers (n = 25) were pre-treated with mycophenolate mofetil for 2 h prior to stimulated for six-hours with H1N1. mRNA-expression of IL-28A, IL-28B and IL-29 and statistical analysis were performed using the Kruskal Wallis (KW) test.
IL-28B primers and probe were designed based on Homo sapiens IL-28B mRNA-sequence (NM_172139.2) using Primer3 Input (version 0.4.0) (http://frodo.wi.mit.edu/). The forward primer (IL-28BF1: […]) spans the exon/exon junction of exons 1 and 2 of IL-28B. The IL-28B-specific probe (IL-28B probe: […] ) is located in the second exon and the reverse primer (IL-28BR1: […]) is in the third exon of the IL-28B gene. […]
The specificity of the three sets of qRT PCR assays was tested against Invivogen expression plasmids containing complete IL-28A (puno1-hIL-28A), IL-28B (puno1-hIL-28B) and IL-29 (punoIL-29) sequences. The specificity of all qRT PCR assays has been previously assessed. […]

transplant recipients = details: MMF; ref [28], [48]; cited from earlier work
[2] = system: PBMCs from healthy volunteers; assay type: cell-based, human; details: peptides 2 h prior to 5-day H1N1 stimulation, compared to peptide controls
[3] = system: IL28RA (IL-28 receptor alpha subunit); assay: ELISA competition assay, binding of IL-28B to IL28RA; details: for inhibition of IFN-λ / IL-28B binding to IL28RA (in words): peptides 10 µM, or increasing 10 nM to 100 µM; for binding affinity to IL28RA (in words): discussion
From the text: Recombinant IL28RA was coated on an ELISA plate and pre-treated with increasing concentrations of peptides. […] Anti-his secondary antibody was used to determine the relative amount of bound IFN-λ to the IL28RA. These dose-response curves allowed us to determine the effectiveness of binding inhibition of each peptide.
(C) Inhibitory activity of peptides against IL-28B to IL28RA. […] Bars indicate median values, whiskers inter-quartile ranges. The graph represents three independently repeated experiments. (D) Inhibitory activity of scrambled peptides against IL-28B to IL28RA. ELISA was used to measure the binding of a fixed concentration of IL-28B (100 ng/mL) to the IL28RA challenged by a fixed concentration of control peptides (10 µM; s, scramble). The median value representing three independently repeated experiments is shown. Whiskers indicate the interquartile range.

IL28RA = details: reference not given; cited from earlier work
From the text: An important strength of our study is the use of a clinical cohort including immunosuppressed transplant recipients to confirm our findings in the clinical setting. We then sought to define additional observations to support our clinical findings making our study unique. One limitation of our study is the heterogeneity of the transplant cohort due to a variety of underlying conditions leading to organ failure. […] In addition, we have shown that mycophenolate mofetil (MMF) and the IL-28B major-allele ...

[4] = system: T-cells, monocytes and macrophages; details: ref [18]–[21]; cited from earlier work
From the text: The IFN-λ family (Interleukin-28A, -28B, -29, and IFN-λ4) is a recently described class of IFNs with antiviral properties similar to IFN-α and -β [14]–[17]. IFN-λ is known to induce phosphorylation of STAT-1 and -2 via binding to its receptor, which is a heterodimer consisting of the IL-28 receptor alpha subunit (IL28RA) and IL-10 receptor beta subunit (IL10RB). […] Furthermore, IFN-λs induced the development of T-regu ... || IL-28B (IFN-λ3) belongs to the family of IFN-lambdas and shares antiviral properties similar to IFN-α via induction of interferon stimulated genes (ISGs) such as MX1 or OAS1 [41]. […] IL-12 is a key cytokine for the induction of Th1 cells and cytotoxic lymphocytes, [43]. SNPs in the IL-28B gene (minor-allele genotypes) have been associated with reduced IL-28B expression, [29]–[33], which could impact adaptive immune functions during vaccination. One limitation of our study is that we d ...

H1N1 stimulated PBMCs = assay type: cell-based, human; details: control peptides added twice during expansion phase
[5] = competition ELISA, IL-28B 100 ng/mL

Molecule: COc1c(C)c2c(c(O)c1C/C=C(\C)CCC(=O)OCCN1CCOCC1)C(=O)OC2 [MMF, mycophenolate mofetil]
- IFN-λ (IL-28A, IL-28B, IL-29) mRNA expression profiles [1]: no difference in IFN-λ expression profiles; also recorded: not influenced
- effect on influenza vaccine responses (transplant recipients): significantly suppress influenza vaccine responses

Molecule: ASVTFNLFRLLTRDLKY [peptide 6]
- H1N1-induced IgG production (in words) [2]: ability to significantly increase in vitro H1N1-induced IgG production
- inhibition of IFN-λ / IL-28B binding to IL28RA (in words) [3, 5]: strong potential to inhibit binding of IFN-λs
- binding affinity to IL28RA (in words) [3]: high binding affinities to IL28RA

Molecule: ELASFKKARDALEESLKL [peptide 1]
- H1N1-induced IgG production (in words) ([2]; listed as Peptides 1): strong trend for higher H1N1-induced IgG secretion
- H1N1-induced IgG production (in words) ([2]; listed as peptides 1): ability to significantly increase in vitro H1N1-induced IgG production
- reduction of the binding of IL-28B to IL28RA ([3]; competition ELISA, IL-28B 100 ng/mL, peptide 10 µM (S5C/S5D Figure), median of three independent experiments): 71%
- inhibition of IFN-λ / IL-28B binding to IL28RA (in words) [3, 5]: potent specific dose dependent inhibitory blocking effect
- inhibition of IFN-λ / IL-28B binding to IL28RA (in words) ([3]; competition ELISA, IL-28B 100 ng/mL, listed as peptides 1): strong potential to inhibit binding of IFN-λs
- binding affinity to IL28RA (in words) [3]: high binding affinities to IL28RA

Molecule: IL-29: one of the IFN-λ family members
- binding affinity towards IL28RA compared to IL-28B (IL28RA): significantly greater binding affinity
- Th1 and Th2 cytokine producing T-cells [4]: increase Th1 and suppress Th2 cytokine producing T-cells

Molecule: penetratin
- unspecific stimulatory effect on H1N1 stimulated IgG production (H1N1 stimulated PBMCs): No unspecific effect could be observed
